Experiments:
[1] = biological target: T1, FLJ39196 clone-derived protein (human neurocalcin δ) (Homo sapiens, UniProt P61601); test: SEC/MS interaction analysis (size exclusion spin column and mass analysis) with FLJ39196 clone-derived protein; format: binding
T1 construct: A human full-length cDNA clone was expressed as a protein with an N-terminal His tag; His tag (N); made in house; host or cells: Escherichia coli BL21star(DE3)pLysS (pDEST17 Gateway expression plasmid)
Procedure, shortened: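 Unmodified, non-immobilized protein was mixed with compound and separated by size exclusion on 384-well Unifilter 100 spin columns packed with 10 μL Bio-Gel P6. The protein-fraction filtrate was collected in 50% acetonitrile, deproteinized, concentrated, redissolved in 10 μL of 50% methanol, and 2 μL was injected for ESI mass analysis of compound spectral intensity.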

[2] = biological target: T2, FLJ20589 clone-derived protein (human hippocalcin-like protein 1, VILIP-3) (Homo sapiens, UniProt P37235); test: SEC/MS interaction analysis (size exclusion spin column and mass analysis) with FLJ20589 clone-derived protein; format: binding
T2 construct: A human full-length cDNA clone was expressed as a protein with an N-terminal His tag; His tag (N); made in house; host or cells: Escherichia coli BL21star(DE3)pLysS (pDEST17 Gateway expression plasmid)

[3] = protein 0 μM (protein-free reference), compound 1 μM
[4] = protein 0 μM (protein-free reference), compound 10 μM
[5] = protein 0 μM (protein-free reference), compound 100 μM
[6] = protein 0 μM (protein-free reference), compound 250 μM
[7] = protein 23.75 μM, compound 1 μM
[8] = protein 23.75 μM, compound 10 μM
[9] = protein 23.75 μM, compound 100 μM
[10] = protein 23.75 μM, compound 250 μM
[11] = protein 47.5 μM, compound 10 μM
[12] = protein 47.5 μM, compound 100 μM
[13] = protein 47.5 μM, compound 250 μM

O=C1CN=C(c2ccccc2)c2cc(Cl)ccc2N1CC1CC1 [prazepam] was tested, and the “spectral intensity of the compound in the SEC spin column filtrate (protein fraction)” value (shortened to “spectral intensity … (protein fraction)”) [1, 3] was 45379226, the “spectral intensity … (protein fraction)” value [1, 4] was 21988256 and the “spectral intensity … (protein fraction)” value [1, 5] was 130413200. For the same compound, the “spectral intensity … (protein fraction)” value [1, 6] was 139016191, the “spectral intensity … (protein fraction)” value [1, 7] was 38417587 and the “spectral intensity … (protein fraction)” value [1, 8] was 46660512. For the same compound, the “spectral intensity … (protein fraction)” value [1, 9] was 258681345, the “spectral intensity … (protein fraction)” value [1, 10] was 517983224 and the “spectral intensity … (protein fraction)” value ([1]; protein 47.5 μM, compound 1 μM) was 26479402. The “spectral intensity … (protein fraction)” value [1, 11] was 67670753, the “spectral intensity … (protein fraction)” value [1, 12] was 264065408 and the “spectral intensity … (protein fraction)” value [1, 13] was 706383483. The “spectral intensity … (protein fraction)” value [2, 3] was 563508, the “spectral intensity … (protein fraction)” value [2, 4] was 752185 and the “spectral intensity … (protein fraction)” value [2, 5] was 5911478. For the same compound, the “spectral intensity … (protein fraction)” value [2, 6] was 8158416, the “spectral intensity … (protein fraction)” value [2, 7] was 372254 and the “spectral intensity … (protein fraction)” value [2, 8] was 1912944. For the same compound, the “spectral intensity … (protein fraction)” value [2, 9] was 27662748, the “spectral intensity … (protein fraction)” value [2, 10] was 53037838 and the “spectral intensity … (protein fraction)” value ([2]; protein 47.5 μM, compound 1 μM) was 603084. The “spectral intensity … (protein fraction)” value [2, 11] was 8279573, the “spectral intensity … (protein fraction)” value [2, 12] was 67316791 and the “spectral intensity … (protein fraction)” value [2, 13] was 87274751.

— patent publication US8178077B2, “Drug development target protein and target gene, and method of screening” (Reverse Proteomics Research Institute Co., Ltd., priority 2004, dated 2012)
